Consider one compound from paper PMC11249012 (Journal of Medicinal Chemistry, 2024).

Molecules are shown by their SMILES.

The target of the assay is T1, HDAC10 (Homo sapiens, UniProt Q969S8).
T1 sequence (Q969S8 1-669): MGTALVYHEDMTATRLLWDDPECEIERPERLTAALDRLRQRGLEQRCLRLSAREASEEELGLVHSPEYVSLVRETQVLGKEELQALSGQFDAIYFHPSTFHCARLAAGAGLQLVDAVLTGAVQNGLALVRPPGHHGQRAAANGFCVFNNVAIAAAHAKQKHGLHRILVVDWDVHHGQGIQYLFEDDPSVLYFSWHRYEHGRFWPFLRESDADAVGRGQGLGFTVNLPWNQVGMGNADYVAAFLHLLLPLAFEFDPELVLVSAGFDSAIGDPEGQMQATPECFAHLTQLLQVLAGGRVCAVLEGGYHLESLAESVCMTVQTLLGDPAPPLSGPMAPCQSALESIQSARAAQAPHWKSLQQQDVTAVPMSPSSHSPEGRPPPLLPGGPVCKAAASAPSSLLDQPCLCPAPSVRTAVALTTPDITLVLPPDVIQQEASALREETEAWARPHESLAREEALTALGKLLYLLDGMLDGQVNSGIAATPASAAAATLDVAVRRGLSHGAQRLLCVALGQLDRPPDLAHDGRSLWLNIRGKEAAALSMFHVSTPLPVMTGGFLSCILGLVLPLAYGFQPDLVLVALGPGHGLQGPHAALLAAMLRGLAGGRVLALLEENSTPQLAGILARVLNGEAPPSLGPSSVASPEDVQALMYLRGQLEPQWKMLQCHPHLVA
Put plainly: Biochemical assay for HDAC inhibition, HDAC10. The conditions noted are these: read-out: IC50 HDAC10; Table 1, purified enzyme; unit inferred.

Turning to `Cn1cc(CNCC2CCN(c3ncc(C(=O)NO)cn3)CC2)c2ccccc21` [quisinostat], the IC50 was 6.75 nM.

Usually IC50 stands for the concentration needed to halve the response being measured.
